# Results from patent publication US7312344B2, “Dimeric isoflavones” (Novogen Research Pty Limited, priority 2001, dated 2007).
# Like-named read-outs stand apart in the source and are kept apart here.
# Key:
# [1] = tested on: soft tissue (Kym-1); assay: Cell cytotoxicity assay (MTT), Kym-1; type: cell-based; details: Homo sapiens, read-out: Cell Line IC50 Kym-1
# Experimental: (§1) The anticancer potential of the tetraphenolic dimer (Structure 3) and the tetraacetoxy dimer (Structure 2) was assessed using a panel of human tumour cell lines, including glioma (C6), prostate (PC3), breast (MCF-7), soft tissue (Kym-1) and lung (NCI-H23 and NCI-H460). The cell cytotoxicity assay was conducted as per the method of Alley et al., 1988. Cell lines are exposed to varying concentrations of test compound for a fixed time. At the conclusion of the assay, the viability of the cell population is determined using the hydrogen acceptor reagent 3-(4,5-dimethylthiazol-2-yl)-2,5 diphenyltetrazolium bromide (MTT). The concentration of compound required to inhibit 50% of cell growth in comparison to a control (IC50) is an indicator of effectiveness of the compound. (i.e. the lower the concentration of compound required to inhibit 50% of normal cell proliferation, the more efficacious).
# [2] = tested on: prostate (PC3); assay: Cell cytotoxicity assay (MTT), PC3; type: cell-based, human; details: read-out: Cell Line IC50 PC3
# Experimental: as §1
# [3] = tested on: glioma (C6); assay: Cell cytotoxicity assay (MTT), C6 glioma; type: cell-based, human; details: Rattus norvegicus, read-out: Cell Line IC50 C6 Glioma
# Experimental: as §1
# [4] = tested on: lung (NCI-H23); assay: Cell cytotoxicity assay (MTT), NCI-H23; type: cell-based, human; details: read-out: Cell Line IC50 NCI-H23
# Experimental: as §1
# [5] = molecular target: T1, recombinant human estrogen receptors-alpha (ER-α) (Homo sapiens, UniProt P03372); assay: Estrogen receptor competitive binding assay (fluorescence polarization kit), ER-α
# T1 construct: purchased
# T1 sequence (P03372 1-595): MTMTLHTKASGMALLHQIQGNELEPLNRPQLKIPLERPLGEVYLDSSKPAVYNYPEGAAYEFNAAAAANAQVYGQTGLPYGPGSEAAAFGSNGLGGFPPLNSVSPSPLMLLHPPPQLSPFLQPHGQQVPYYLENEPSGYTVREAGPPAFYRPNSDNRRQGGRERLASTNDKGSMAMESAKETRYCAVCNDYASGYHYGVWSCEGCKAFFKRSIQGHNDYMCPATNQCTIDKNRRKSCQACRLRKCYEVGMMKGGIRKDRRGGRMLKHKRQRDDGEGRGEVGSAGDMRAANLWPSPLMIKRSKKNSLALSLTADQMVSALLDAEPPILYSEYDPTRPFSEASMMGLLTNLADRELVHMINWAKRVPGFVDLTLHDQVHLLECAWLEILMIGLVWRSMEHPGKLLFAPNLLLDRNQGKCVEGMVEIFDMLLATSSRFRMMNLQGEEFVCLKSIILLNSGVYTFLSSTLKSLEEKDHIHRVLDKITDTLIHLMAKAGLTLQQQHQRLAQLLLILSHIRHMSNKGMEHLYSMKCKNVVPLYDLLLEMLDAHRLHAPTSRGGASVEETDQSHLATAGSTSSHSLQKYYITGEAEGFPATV
# Experimental: (§2) The ability of the tetraphenolic dimer (Structure 3) and tetraacetoxy dimer (Structure 2) to interact with estrogen receptor alpha and beta was determined using a commercially available estrogen receptor binding kit. This kit employs a competitive binding assay to determine the relative binding affinity of test compounds for recombinant human estrogen receptors-alpha (ER-α) and beta (ER-β). […] The complex is then added to decreasing concentrations of competitor test compounds. The shift in polarization in the presence of test compound is used to determine the relative affinity of test compounds for the estrogen receptor.
# [6] = tested on: breast (MCF-7); assay: Cell cytotoxicity assay (MTT), MCF-7; type: cell-based, human
# Experimental: as §1
# [7] = tested on: lung (NCI-H460); assay: Cell cytotoxicity assay (MTT), NCI-H460; type: cell-based; details: Homo sapiens, read-out: Cell Line IC50 NCI-H460
# Experimental: as §1
# [8] = molecular target: T2, recombinant human estrogen receptor beta (ER-β) (Homo sapiens, UniProt Q92731); assay: Estrogen receptor competitive binding assay (fluorescence polarization kit), ER-β
# T2 construct: purchased
# T2 sequence (Q92731 whole entry): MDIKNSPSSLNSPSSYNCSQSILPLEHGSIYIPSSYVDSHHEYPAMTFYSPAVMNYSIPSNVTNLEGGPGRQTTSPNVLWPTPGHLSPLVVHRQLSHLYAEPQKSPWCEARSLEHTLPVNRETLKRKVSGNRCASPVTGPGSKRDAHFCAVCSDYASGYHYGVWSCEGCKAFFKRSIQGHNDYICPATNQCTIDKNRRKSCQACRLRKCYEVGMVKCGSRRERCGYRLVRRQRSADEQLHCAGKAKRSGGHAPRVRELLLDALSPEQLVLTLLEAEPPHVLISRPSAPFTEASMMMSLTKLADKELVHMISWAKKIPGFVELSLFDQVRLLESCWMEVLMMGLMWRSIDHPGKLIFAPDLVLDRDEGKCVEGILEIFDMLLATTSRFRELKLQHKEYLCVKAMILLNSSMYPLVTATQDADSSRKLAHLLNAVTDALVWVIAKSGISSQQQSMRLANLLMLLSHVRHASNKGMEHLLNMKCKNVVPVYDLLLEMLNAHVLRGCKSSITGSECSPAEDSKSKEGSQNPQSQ
# Experimental: as §2
"EC50 ([5]; read-out: concentration required to displace 50% of bound fluorescent estrogen ligand (EC50), ER-alpha) [µM]","EC50 ([8]; read-out: concentration required to displace 50% of bound fluorescent estrogen ligand (EC50), ER-beta) [µM]",SMILES,IC50 [1] [µM],IC50 ([2]; Homo sapiens) [µM],IC50 [3] [µM],IC50 ([4]; Homo sapiens) [µM],"IC50 ([6]; Homo sapiens, MCF7, read-out: Cell Line IC50 MCF-7) [µM]",IC50 [7] [µM],IC50 [2] [µM],IC50 [4] [µM],binding to ER-α (in words) [5],IC50 ([6]; read-out: Cell Line IC50 MCF-7) [µM],binding to ER-β (in words) [8]
0.35 ± 0.05,0.37 ± 0.05,"Oc1ccc(C2=Cc3cc(C4c5ccc(O)cc5OCC4c4ccc(O)cc4)c(O)cc3OC2)cc1 (stereo not shown) [Structure 3, 6-(4-(Isoflavan-4′,7-diol))-isoflav-3-ene-4′,7-diol]",3.2,13.5,17.5,13.5,18 ± 2,14.4,,,,,
,,"CC(=O)Oc1ccc(C2=Cc3cc(C4c5ccc(OC(C)=O)cc5OCC4c4ccc(OC(C)=O)cc4)c(OC(C)=O)cc3OC2)cc1 (stereo not shown) [Structure 2, Tetraacetoxy 6-(4-(isoflavan-4′,7-diol))-isoflav-3-ene-4′,7-diol]",,,,,,,6,7.3,did not bind,10 ± 5,did not bind
